Tests used:
Test in all cases: greenhouse test, pre-emergence treatment
ALOMY = type: in vivo, Alopecurus myosuroides
Description: (§1) The culture containers used were plastic pots containing loamy sand with approximately 3.0% of humus as substrate. The seeds of the test plants were sown separately for each species.
(§2) For the pre-emergence treatment, the active compounds, suspended or emulsified in water, were applied directly after sowing by means of finely distributing nozzles. The containers were irrigated gently to promote germination and growth and subsequently covered with transparent plastic hoods until the plants had rooted. This cover caused uniform germination of the test plants unless this was adversely affected by the active compounds.
(§3) Depending on the species, the plants were kept at 10-25° C. and 20-35° C., respectively. The test period extended over 2 to 4 weeks. During this time, the plants were tended and their response to the individual treatments was evaluated.
(§4) Evaluation was carried out using a scale from 0 to 100. 100 means no emergence of the plants, or complete destruction of at least the above-ground parts, and 0 means no damage or normal course of growth. Good herbicidal activity is given at values of at least 70, and very good herbicidal activity is given at values of at least 85.
(§5) The respective stated components A and B, and if appropriate, C were formulated as a 5% by weight or 10% by weight strength emulsion concentrate or a commercially available formulation of component B was used and, with addition of the amount of solvent system, introduced into the spray liquor used for applying the active compound. In the examples, the solvent used was water.
(§6) The test period extended over 20 or 21 days. During this time, the plants were tended, and their reactions to the treatment with active compound was monitored.
(§7) What was evaluated was the damage by the chemical compositions using a scale of from 0 to 100%, in comparison to the untreated control plants. 0 means no damage, and 100 means complete destruction of the plants.
(§8) In the examples below, using the method of S. R. Colby (1967) “Calculating synergistic and antagonistic responses of herbicide combinations”, Weeds 15, p. 22 ff., the value E, which is expected if the activity of the individual active compounds is only additive, was calculated.
(§9) where X=percent activity using active compound A at an application rate a; Y=percent activity using active compound B at an application rate b; E=expected activity (in %) by A+B at application rates a+b.
(§10) If the value found in experiments is higher than the value E calculated according to Colby, a synergistic effect is present.

PHACA = type: in vivo, Phalaris canariensis
Description: as §1, §2, §3, §4, §5, §6, §7, §8, §9, §10

BRAPL = type: in vivo, Brachiaria plantaginea
Description: as §1, §2, §3, §4, §5, §6, §7, §8, §9, §10

SETFA = type: in vivo, Setaria faberi
Description: as §1, §2, §3, §4, §5, §6, §7, §8, §9, §10

SOLNI = type: in vivo, Solanum nigrum L.
Description: as §1, §2, §3, §4, §5, §6, §7, §8, §9, §10

DIGSA = type: in vivo, Digitaria sanguinalis
Description: as §1, §2, §3, §4, §5, §6, §7, §8, §9, §10

SETLU = type: in vivo, Setaria glauca
Description: as §1, §2, §3, §4, §5, §6, §7, §8, §9, §10

LOLMU = type: in vivo, Lolium multiflorum; details: Use Example 1
Description: as §1, §2, §3, §4, §5, §6, §7, §8, §9, §10

POAAN = type: in vivo, Poa annua; details: Use Example 15
Description: as §1, §2, §3, §4, §5, §6, §7, §8, §9, §10

ECHCG = type: in vivo, Echinochloa crus-galli; details: Use Example 23
Description: as §1, §2, §3, §4, §5, §6, §7, §8, §9, §10

CCHEC = type: in vivo, Cenchrus echinatus; details: Use Example 16
Description: as §1, §2, §3, §4, §5, §6, §7, §8, §9, §10

[1] = 31.25 g/ha a.s., Use Example 14
[2] = 31.25 g/ha a.s., Use Example 23

CC(C)c1ccc(NC(=O)N(C)C)cc1 [Isoproturon, reference compound]
Herbicidal action in % after 20 days against ALOMY (ALOMY; 375 g/ha a.s., Use Example 4): 90% | Herbicidal action in % after 20 days against ALOMY (ALOMY; 750 g/ha a.s., Use Example 4): 98% | Herbicidal action in % after 20 days against PHACA (PHACA; 375 g/ha a.s., Use Example 4): 55% | Herbicidal action in % after 20 days against PHACA (PHACA; 750 g/ha a.s., Use Example 4): 75%

CC1(C)CON(Cc2ccccc2Cl)C1=O [Clomazon, Clomazone]
Herbicidal action in % after 21 days against BRAPL (BRAPL; 50 g/ha a.s., Use Example 8): 65% | Herbicidal action in % after 21 days against BRAPL (BRAPL; 100 g/ha a.s., Use Example 8): 85%

CS(=O)(=O)c1cc(C(F)(F)F)ccc1C(=O)c1cnoc1C1CC1 [Isoxaflutol, Isoxaflutole]
Herbicidal action in % after 20 days against SETFA (SETFA; 13 g/ha a.s., Use Example 19): 40% | Herbicidal action in % after 20 days against SETFA (SETFA; 25 g/ha a.s., Use Example 19): 55% | Herbicidal action in % after 20 days against SOLNI (SOLNI; 13 g/ha a.s., Use Example 19): 85% | Herbicidal action in % after 20 days against SOLNI (SOLNI; 25 g/ha a.s., Use Example 19): 98% | Herbicidal action in % after 20 days against DIGSA (DIGSA; 13 g/ha a.s., Use Example 19): 75% | Herbicidal action in % after 21 days against DIGSA (DIGSA; 25 g/ha a.s., Use Example 9): 98% | Herbicidal action in % after 20 days against DIGSA (DIGSA; 25 g/ha a.s., Use Example 19): 95% | Herbicidal action in % after 20 days against BRAPL (BRAPL; 13 g/ha a.s., Use Example 19): 75% | Herbicidal action in % after 21 days against BRAPL (BRAPL; 25 g/ha a.s., Use Example 9): 90% | Herbicidal action in % after 20 days against BRAPL (BRAPL; 25 g/ha a.s., Use Example 19): 80% | Herbicidal action in % after 21 days against SETLU (SETLU; 25 g/ha a.s., Use Example 9): 75%

CCNc1nc(Cl)nc(NC(C)(C)C)n1 [Terbuthylazine, reference compound]
Herbicidal action in % after 20 days against DIGSA (DIGSA; 250 g/ha a.s., Use Example 5): 35% | Herbicidal action in % after 20 days against BRAPL (BRAPL; 250 g/ha a.s., Use Example 5): 15%

CC(C)N(C(=O)SCC(Cl)=C(Cl)Cl)C(C)C [Triallate, reference compound]
Herbicidal action in % after 20 days against PHACA (PHACA; 300 g/ha a.s., Use Example 1): 40% | Herbicidal action in % after 20 days against PHACA (PHACA; 600 g/ha a.s., Use Example 1): 50% | Herbicidal action in % after 20 days against LOLMU (LOLMU; 300 g/ha a.s.): 60% | Herbicidal action in % after 20 days against LOLMU (LOLMU; 600 g/ha a.s.): 80%

CCC(C)(CC)c1cc(NC(=O)c2c(OC)cccc2OC)on1 [Isoxaben, reference compound]
Herbicidal action in % after 20 days against POAAN (POAAN; 25 g/ha a.s.): 0% | Herbicidal action in % after 20 days against POAAN (POAAN; 50 g/ha a.s.): 0% | Herbicidal action in % after 20 days against ALOMY (ALOMY; 25 g/ha a.s., Use Example 15): 0% | Herbicidal action in % after 20 days against ALOMY (ALOMY; 50 g/ha a.s., Use Example 15): 0%

COC[C@H](C)N(C(=O)CCl)c1c(C)csc1C [Dimethenamide-P, reference compound]
Herbicidal action in % after 20 days against SETFA (SETFA; [1]): 95% | Herbicidal action in % after 20 days against SOLNI (SOLNI; 16 g/ha a.s., Use Example 23): 60% | Herbicidal action in % after 20 days against SOLNI (SOLNI; [2]): 80% | Herbicidal action in % after 20 days against DIGSA (DIGSA; 16 g/ha a.s., Use Example 23): 70% | Herbicidal action in % after 20 days against DIGSA (DIGSA; [1]): 90% | Herbicidal action in % after 20 days against DIGSA (DIGSA; [2]): 85% | Herbicidal action in % after 20 days against ECHCG (ECHCG; 16 g/ha a.s.): 50% | Herbicidal action in % after 20 days against ECHCG (ECHCG; 31.25 g/ha a.s.): 85% | Herbicidal action in % after 20 days against BRAPL (BRAPL; 16 g/ha a.s., Use Example 23): 40% | Herbicidal action in % after 20 days against BRAPL (BRAPL; [2]): 50% | Herbicidal action in % after 20 days against SETLU (SETLU; [1]): 65%

O=C(O)c1c(Cl)ccc2cc(Cl)cnc12 [Quinclorac]
Herbicidal action in % after 20 days against CCHEC (CCHEC; 62.5 g/ha a.s.): 0% | Herbicidal action in % after 20 days against CCHEC (CCHEC; 125 g/ha a.s.): 20% | Herbicidal action in % after 20 days against BRAPL (BRAPL; 62.5 g/ha a.s., Use Example 16): 0% | Herbicidal action in % after 20 days against BRAPL (BRAPL; 125 g/ha a.s., Use Example 16): 25% | Herbicidal action in % after 20 days against SETLU (SETLU; 62.5 g/ha a.s., Use Example 16): 50% | Herbicidal action in % after 20 days against SETLU (SETLU; 125 g/ha a.s., Use Example 16): 85%

— patent US20100190794A1, “Herbicidally Active Composition” (BASF SE, priority 2007, published 2010)
